# Reference: US10544440B2, “Multiple protease deficient filamentous fungal cells and methods of use thereof” (Glykos Finland OY, priority 2013, dated 2020)
# Square brackets hold non-standard residues; d marks the D form. Peptide text beside a SMILES is read from it. * marks the point of attachment. Sta = CC(C)C[C@H](N)[C@@H](O)CC(=O)O; Isovaleryl = CC(C)CC(=O)*
# B1: SBTI: soybean trypsin inhibitor, protease inhibitor (protein, UniProt P01070 25-205, looked up)
# Trypsin inhibitor A: DFVLDNEGNPLENGGTYYILSDITAFGGIRAAPTGNERCPLTVVQSRNELDKGIGTIISSPYRIRFIAEGHPLSLKFDSFAVIMLCVGIPTEWSVVEDLPEGPAVKIGENKDAMDGWFRLERVSDDEFNNYKLVFCPQQAEDDKCGDIGISIDHDDGTRRLVVSKNKPLVVQFQKLDKESL
# Legend:
# M1200 strain = assay: Inhibitor studies on FGF21 production strain M1200 in 24 well culture; type: cell-based, Trichoderma reesei; conditions: M1200 24 well culture, inhibitors 10 μM, SBTI 0.1 mg/ml; for FGF21 expression, lower band / FGF21 expression, total product / FGF21 expression, upper band: day 4 immunoblot
# Excerpt: Chymostatin and SBTI are known to inhibit SLP2 and SLP7 subtilisin proteases that are still expressed in the M1200 strain. Pepstatin inhibits aspartic proteases such as PEP8, PEP11, PEP12 which are known to be secreted into the supernatant. 1,10-phenathroline targets mainly zinc metalloproteases which are secreted by Trichoderma. The M1200 strain was cultivated in 24 well format in TrMM with 10 g/L yeast extract, 20 g/L cellobiose, 10 g/L sorbose, PIPPS buffered at pH 4.5. Chymostatin, phenathroline, and pepstatin were used at a final concentration of 10 μM and SBTI was used at 0.1 mg/ml. Each treatment was done in duplicate wells and the untreated control was cultured in 4 wells.
# The cultures were started by adding 1×10^7 spores into 50 ml of culture medium and adding 3 ml of culture medium plus spores to each well (6×10^5 spores/well). 100 μl of each culture supernatant was collected on days 4, 5, and 6. The mycelium was spun down to remove only the supernatant. Orange LSB was added and the samples were heated for 5 minutes. 2 μl of the supernatant+LSB was loaded per well into 4-20% Criterion TGX gel. The gel was run and proteins were transferred to nitrocellulose membranes.
# The expressed FGF21 was detected by immunoblotting as above. A commercially purchased N-terminal antibody rabbit polyclonal from Abcam (#ab66564) and C-terminal rabbit polyclonal antibody from Abcam (#ab137715) were used in some cases.
# M393 strain = assay: FGF21 production by M393 in 24 well cultures treated with protease inhibitors; type: cell-based, Trichoderma reesei; conditions: M393 24 well culture, 10 μM pepstatin A added, day 6
# Protocol: The M393 strain was grown with and without protease inhibitors pepstatin A, chymostatin, or soybean trypsin inhibitor. Independent wells were chosen for control wells where no inhibitors were added. This strain was grown in 3 ml of TrMM with diammonium citrate without ammonium sulfate, 100 mM PIPPS, 20 g/L spent grain extract, 40 g/L lactose adjusted to pH 4.5. The 24 well plates were shaken at 800 rpm at 85% humidity. The plate was covered with an air permeable membrane and the cultures were grown for 6 days.
# Inhibitors were added first on day 3 and then added daily until day 6. 200 μl samples were taken from the culture wells beginning on day 3. The mycelium was spun down for 5 minutes at 13 k and the supernatant collected. From the culture supernatant 5 μl plus LSB was loaded in a 4-20% SDS PAGE gel and immunoblotting made on nitrocellulose with rabbit anti-FGF21 (2 μg/ml) and goat anti-rabbit IgG AP conjugated secondary antibody diluted 1:10,000. FGF21 standard were included on the blot for quantification.
Molecule,"FGF21 expression, lower band (M1200 strain) [Fluorescent units]","FGF21 expression, total product (M1200 strain) [Fluorescent units]","FGF21 expression, upper band (M1200 strain) [Fluorescent units]",effect of inhibitor treatment on FGF21 forms (immunoblot) (M1200 strain),FGF21 production (M393 strain)
"c1cnc2c(c1)ccc1cccnc12 [1,10-phenathroline]",68800,69574,774,only improved the expression level of the 10 kD form,
CC(C)C[C@H](NC(=O)[C@@H](NC(=O)N[C@@H](Cc1ccccc1)C(=O)O)[C@@H]1CCN=C(N)N1)C(=O)N[C@H](C=O)Cc1ccccc1 [chymostatin],19500,53700,34200,improved the stability of the protein allowing a 17 kD major product,
"CC(C)CC(=O)N[C@H](C(=O)N[C@H](C(=O)N[C@@H](CC(C)C)[C@@H](O)CC(=O)N[C@@H](C)C(=O)N[C@@H](CC(C)C)[C@@H](O)CC(=O)O)C(C)C)C(C)C [pepstatin, pepstatin A] (Isovaleryl-VV[Sta]A[Sta]-OH)",51050,52660,1610,only improved the expression level of the 10 kD form,up to 160 mg/L
B1,37050,50850,13800,only improved the expression level of the 10 kD form,
